According to patent US10357479B2, “Angiotensin II receptor antagonist for the prevention or treatment of systemic diseases in cats” (priority 2006, dated 2019):
Values joined by “and” are separate entries in the source; they are usually repeats but may differ in a detail not shown here. Identical values can stand only once. “Also recorded” adds a separate entry of the source.

What was measured:
[1] = human patients, 160 mg daily; cited from earlier work
[2] = system: angiotensin II receptor 1 (AT-1); test: Angiotensin II induced increase in diastolic blood pressure in laboratory cats after oral dosing; assay type: in vivo; details: approximately 24 hours after the last oral dosing, target dose vs Placebo
[3] = Pharmacokinetics and absolute bioavailability in plasma after single oral or intravenous administration (Example 1); details: for AUC(0-inf) / half-life / t max / V/f or V / t ½ / AUC 0 → ∞: single dose 1 mg/kg, mean; for half-life: t ½
Protocol: Four clinically healthy male and female domestic short hair cats (HsdCpb: CADS) with a body weight range of 2.6-4.2 kg were used in this study. The animals were randomly allocated to 2 groups, 2 animals per group.
Blood samples were drawn at 0 h (i.e. prior to treatment), 5 (after i. v. injection only), 15, 30 and 60 min as well as 2, 4, 8, 24, 72 and 96 h after each treatment. Clinical observations were also conducted at these time points. Plasma samples were sent to the analytical laboratory and analysed there using a validated method. The plasma levels measured in each animal were subjected to various pharmacokinetic calculations.

[4] = Safety after repeated oral administration over four weeks (Example 3); assay type: in vivo, cats
Protocol: The animals were allocated to 3 groups, 4 animals per group. […] The bottles with the test/control article looked identical with the exception of the animal no. in order to achieve blinding.
Blood samples for haematology and clinical chemistry were collected from the animals on days-1 (i.e. prior to the first treatment) and again on days 3, 7, 14, 28. Body weights were measured weekly and electrocardiography recording were made on days-1, 14, 21 and 28. A detailed physical examination including determination of rectal temperature and respiratory rate was carried out on days-1, 7, 14, 22 and 28. Systolic blood pressure (once daily) and heart rate (twice daily) were determined five days per week beginning prior to treatment until necropsy. The palatability of the administered article was assessed at various time points throughout treatment using a scoring system. On day 28 of the study, all animals were subjected to necropsy and stomach and kidneys were examined histopathologically. Relevant parameters were analysed using appropriate statistical procedures.

[5] = system: angiotensin II receptor 1 (AT-1); test: Escalating intravenous dose: blood pressure response of anaesthetised cats after angiotensin II (Example 2); assay type: in vivo
Protocol: Four clinically healthy adult male and female domestic short hair cats (HsdCpb: CADS) with a body weight range of 2.5-3.5 kg were used in this study. The animals were anaesthetised with sodium pentobarbital and anaesthesia was sustained by continuous infusion of diluted anaesthetic. A catheter was inserted into a carotid artery and connected to a pressure transducer for registration of the arterial pressure. […] The systolic and diastolic blood pressure [mmHg] in the carotid artery were recorded and analysed at discrete intervals as described below.
At first, the diastolic blood pressure was registered 6 times every 5 minutes. The mean of these 6 measurements were set as the baseline blood pressure. Then two bolus injections of A2 were administered at a dose of 0.1 μg/kg in an interval of 10 min. The maximum increase in diastolic blood pressure obtained from the second A2-bolus relative to the baseline blood pressure was taken as the control angiotensin II-blood pressure response (i.e. reference value).
Thirty minutes later the diastolic blood pressure was recorded, immediately followed by bolus injection of A2 at a dose of 0.1 μg/kg and the maximum increase in diastolic blood pressure was obtained. This procedure was to be repeated accordingly until the intended endpoint of the experiment (i.e. an A2-pressure response ≤10% of the control A2-pressure response corresponding to ≥90% inhibition) was reached. […] At the end of the experiment, the anaesthetised animals were euthanized with an overdose of sodium pentobarbital.

[6] = both, domestic short hair (HsdCpb: CADS), plasma, po, 1 mg/kg
[7] = oral once daily days 0 to 27, 1 and 3 mg/kg

Question: Which “plasma level (Cmax±SD)” value [1] does the source give for `CCCc1nc2c(C)cc(-c3nc4ccccc4n3C)cc2n1Cc1ccc(-c2ccccc2C(=O)O)cc1` [telmisartan, 4′-[2-n-propyl-4-methyl-6-(1-methylbenzimidazol-2-yl)-benzimidazol-1-ylmethyl]-biphenyl-2-carboxylic acid] here?
Answer: about 2800±2400 ng/ml

Question: And the “diastolic blood pressure responses to increasing intravenous doses of Angiotensin II” value [2]?
Answer: significantly reduced

Question: And the “plasma concentrations at 24 h” value ([3]; 24 h after both routes, orally and intravenously)?
Answer: No quantifiable plasma concentrations

Question: And the “time until which mean plasma concentrations increased” value ([3]; after oral administration)?
Answer: 15 to 30 min

Question: What about the bioavailability ([3]; both, domestic short hair (HsdCpb: CADS), cat, plasma, po, 1 mg/kg, absolute bioavailability after oral administration, oral 1 mg/kg) of the same molecule?
Answer: 33%

Question: And the MRT ([3]; both, domestic short hair (HsdCpb: CADS), plasma, iv, 1 mg/kg)?
Answer: 0.789 h

Question: What about the AUC(0-inf) ([3]; both, domestic short hair (HsdCpb: CADS), plasma, iv, 1 mg/kg, i.v., first AUC line (r5)) of the same molecule?
Answer: 385 ng·h/mL

Question: What about the AUC(0-inf) ([3]; both, domestic short hair (HsdCpb: CADS), plasma, iv, 1 mg/kg, i.v., second AUC line (r7)) of the same molecule?
Answer: 376 ng·h/mL

Question: What about the half-life ([3]; both, domestic short hair (HsdCpb: CADS), plasma, iv, 1 mg/kg, i.v.) of the same molecule?
Answer: 2.25 h

Question: And the CL/F [3, 6]?
Answer: 172 mL/min/kg

Question: And the Cmax [3, 6]?
Answer: 138 ng/mL

Question: What about the MRT [3, 6] of the same molecule?
Answer: 1.97 h

Question: What about the AUC(0-inf) ([3]; both, domestic short hair (HsdCpb: CADS), plasma, po, 1 mg/kg, oral, first AUC line (r5)) of the same molecule?
Answer: 150 ng·h/mL

Question: What about the AUC(0-inf) ([3]; both, domestic short hair (HsdCpb: CADS), plasma, po, 1 mg/kg, oral, second AUC line (r7)) of the same molecule?
Answer: 139 ng·h/mL

Question: What about the bioavailability ([3]; both, domestic short hair (HsdCpb: CADS), plasma, po, 1 mg/kg, absolute bioavailability after oral administration, oral 1 mg/kg) of the same molecule?
Answer: 33.6%

Question: What about the bioavailability ([3]; both, domestic short hair (HsdCpb: CADS), plasma, po, 1 mg/kg, absolute bioavailability, point estimate, for AUC 0→t, oral vs i.v. 1 mg/kg) of the same molecule?
Answer: 31.6%

Question: What about the bioavailability ([3]; both, domestic short hair (HsdCpb: CADS), plasma, po, 1 mg/kg, absolute bioavailability, point estimate, for AUC 0→∞, oral vs i.v. 1 mg/kg) of the same molecule?
Answer: 33.6%

Question: And the t max ([3]; both, domestic short hair (HsdCpb: CADS), plasma, po, 1 mg/kg, t max, oral)?
Answer: 0.44 h

Question: What about the half-life ([3]; both, domestic short hair (HsdCpb: CADS), plasma, po, 1 mg/kg, oral) of the same molecule?
Answer: 2.17 h

Question: And the bioavailability ([3]; domestic short hair (HsdCpb: CADS), plasma, po, 1 mg/kg, bioavailability, individual data, animal no. 101, for AUC 0→∞)?
Answer: 11.6%

Question: And the bioavailability ([3]; domestic short hair (HsdCpb: CADS), plasma, po, 1 mg/kg, bioavailability, individual data, the other animals, for AUC 0→∞)?
Answer: 38.7 to 58.2%

Question: And the clinical signs ([3]; entire course of the study, single oral or i.v. 1 mg/kg)?
Answer: No specific clinical signs

Question: And the “V/f or V” value ([3]; i.v., 1 mg/kg)?
Answer: 8.8 L/kg and 8.856 L/kg

Question: What about the “t ½” value ([3]; i.v., 1 mg/kg) of the same molecule?
Answer: 2.252 h

Question: What about the “AUC 0 → ∞” value ([3]; i.v., first AUC line (r5), 1 mg/kg) of the same molecule?
Answer: 384.751 ng·h/mL

Question: What about the tolerability ([3]; in vivo, 1 mg/kg) of the same molecule?
Answer: well tolerated

Question: And the “V/f or V” value ([3]; oral, 1 mg/kg)?
Answer: 20.4 L/kg and 20.453 L/kg

Question: And the t max ([3]; oral, 1 mg/kg)?
Answer: 0.438 h

Question: What about the “t ½” value ([3]; oral, 1 mg/kg) of the same molecule?
Answer: 2.169 h

Question: And the “AUC 0 → ∞” value ([3]; oral, first AUC line (r5), 1 mg/kg)?
Answer: 150.426 ng·h/mL

Question: And the “histopathology of stomach and kidneys” value ([4]; day 28)?
Answer: no histopathological findings considered to be associated with the treatment

Question: And the necropsy findings ([4]; day 28)?
Answer: No animal showed any specific finding

Question: What about the “systolic blood pressure, changes from baseline vs controls” value ([4]; groups II (1 mg/kg) and III (3 mg/kg)) of the same molecule?
Answer: did not reveal significant differences

Question: And the “systolic blood pressure vs control group I” value ([4]; groups II (1 mg/kg) and III (3 mg/kg), single occasions after initiation of treatment)?
Answer: significantly lower

Question: And the “systolic blood pressure, course of the mean values over time” value ([4]; groups II and III vs group I, from day 20 onwards / towards the end of the study)?
Answer: tendency of a slight reduction

Question: And the “body weights, rectal temperature, respiratory and heart rates” value [4, 7]?
Answer: No significant differences

Question: And the clinical findings [4, 7]?
Answer: No clinical findings clearly attributable to the treatment

Question: And the urinalysis [4, 7]?
Answer: not provide evidence of a treatment effect

Question: And the “physical and ECG examinations” value ([4]; oral once daily days 0 to 27, 1 and 3 mg/kg, all time points)?
Answer: did not reveal treatment-related findings

Question: And the “haematological and clinical chemistry parameters including differential leukocyte count” value ([4]; oral once daily days 0 to 27, 1 and 3 mg/kg, vs concurrent controls)?
Answer: No treatment-related differences

Question: What about the “effect of further dose escalation” value ([5]; all 4 animals) of the same molecule?
Answer: did not produce markedly higher effects; also recorded: did not produce an appropriate dose response relationship

Question: And the “maximal inhibition of the blood pressure increase relative to the control angiotensin II-blood pressure response” value ([5]; animal no. 101, reached at cumulative i.v. dose of 0.05 mg/kg)?
Answer: 50%

Question: And the “inhibition of the angiotensin II diastolic blood pressure response” value ([5]; animal no. 102, after the 1st i.v. dose of 0.04 mg/kg)?
Answer: 73%

Question: What about the “inhibition of the angiotensin II diastolic blood pressure response” value ([5]; animal no. 151, cumulative i.v. dose of 0.04 mg/kg) of the same molecule?
Answer: 73%

Question: What about the “inhibition of the angiotensin II diastolic blood pressure response” value ([5]; animal no. 152, after the 1st i.v. dose of 0.02 mg/kg) of the same molecule?
Answer: 73%

Question: What about the “maximal inhibition of the blood pressure increase relative to the control angiotensin II-blood pressure response” value ([5]; animal nos. 102, 151, 152, final cumulative i.v. dose 0.34-0.4 mg/kg) of the same molecule?
Answer: 80-95%

Question: What about the “inhibition of the angiotensin II diastolic blood pressure response” value ([5]; cumulative i.v. dose of 0.04 mg/kg, 3 of 4 animals) of the same molecule?
Answer: 73%

Question: What about the “inhibition of the blood pressure response” value ([5]; doses of less than 0.05 mg per kg body weight, majority of the tested cats) of the same molecule?
Answer: about 75%

Question: And the “effect on diastolic blood pressure increase after angiotensin II” value ([5]; escalating intravenous doses, anaesthetised cats)?
Answer: led to an inhibition of the diastolic blood pressure increase

Question: And the “endpoint of a 90% inhibition of the A2-pressure response” value ([5]; several consecutive escalating i.v. doses)?
Answer: could not be reached in 3 of 4 animals
